Measurements: the NIST ThermoML archive (doi:10.1021/je050402s)
± gives the expanded uncertainty stated by the source.

Columns and labels:
[1] = 100.5 kPa, Liquid
[2] = xn = mol fraction of the nth substance listed; conditions: 100.5 kPa, Liquid, x2 = 0
[3] = 288.15 K, Capillary tube (Ostwald / Ubbelohde) method
[4] = 298.15 K, Capillary tube (Ostwald / Ubbelohde) method
[5] = 308.15 K, Capillary tube (Ostwald / Ubbelohde) method
[6] = 318.15 K, Capillary tube (Ostwald / Ubbelohde) method

CC(=O)OCc1ccccc1 [benzyl ethanoate]
mass density ([1]; 288.15 K): 1060.11 ± 0.31 kg/m3
viscosity [1, 3]: 2.53 ± 0.018 mPa·s
mass density ([1]; 298.15 K): 1050.75 ± 0.29 kg/m3
viscosity [1, 4]: 2.056 ± 0.017 mPa·s
mass density ([1]; 308.15 K): 1041.39 ± 0.28 kg/m3
viscosity [1, 5]: 1.703 ± 0.015 mPa·s
mass density ([1]; 318.15 K): 1032.03 ± 0.27 kg/m3
viscosity [1, 6]: 1.432 ± 0.015 mPa·s

CCC(=O)OCc1ccccc1 [benzyl propanoate]
mass density ([1]; 288.15 K): 1036.86 ± 0.36 kg/m3
viscosity [1, 3]: 2.55 ± 0.019 mPa·s
mass density ([1]; 298.15 K): 1027.6 ± 0.35 kg/m3
viscosity [1, 4]: 2.123 ± 0.018 mPa·s
mass density ([1]; 308.15 K): 1018.38 ± 0.34 kg/m3
viscosity [1, 5]: 1.787 ± 0.016 mPa·s
mass density ([1]; 318.15 K): 1009.15 ± 0.34 kg/m3
viscosity [1, 6]: 1.515 ± 0.015 mPa·s

CCO [ethanol]
mass density ([1]; 288.15 K): 793.6 ± 0.45 kg/m3
viscosity [1, 3]: 1.337 ± 0.014 mPa·s
mass density ([1]; 298.15 K): 785 ± 0.46 kg/m3
viscosity [1, 4]: 1.105 ± 0.014 mPa·s
mass density ([1]; 308.15 K): 776.31 ± 0.48 kg/m3
viscosity [1, 5]: 0.921 ± 0.013 mPa·s
mass density ([1]; 318.15 K): 767.44 ± 0.49 kg/m3
viscosity [1, 6]: 0.771 ± 0.013 mPa·s

CCO [ethanol] + CC(=O)OCc1ccccc1
viscosity [2, 3]: 1.337 ± 0.014 mPa·s
mass density ([2]; 288.15 K): 793.6 ± 0.45 kg/m3
viscosity [2, 4]: 1.105 ± 0.014 mPa·s
mass density ([2]; 298.15 K): 785 ± 0.46 kg/m3
viscosity [2, 5]: 0.921 ± 0.013 mPa·s
mass density ([2]; 308.15 K): 776.31 ± 0.48 kg/m3
viscosity [2, 6]: 0.771 ± 0.013 mPa·s
mass density ([2]; 318.15 K): 767.44 ± 0.49 kg/m3

CCO [ethanol] + CCC(=O)OCc1ccccc1
viscosity [2, 3]: 1.337 ± 0.014 mPa·s
mass density ([2]; 288.15 K): 793.6 ± 0.45 kg/m3
viscosity [2, 4]: 1.105 ± 0.014 mPa·s
mass density ([2]; 298.15 K): 785 ± 0.46 kg/m3
viscosity [2, 5]: 0.921 ± 0.013 mPa·s
mass density ([2]; 308.15 K): 776.31 ± 0.48 kg/m3
viscosity [2, 6]: 0.771 ± 0.013 mPa·s
mass density ([2]; 318.15 K): 767.44 ± 0.49 kg/m3

CCO [ethanol] + CCOC(=O)CC(C)=O
viscosity [2, 3]: 1.337 ± 0.014 mPa·s
mass density ([2]; 288.15 K): 793.6 ± 0.45 kg/m3
viscosity [2, 4]: 1.105 ± 0.014 mPa·s
mass density ([2]; 298.15 K): 785 ± 0.46 kg/m3
viscosity [2, 5]: 0.921 ± 0.013 mPa·s
mass density ([2]; 308.15 K): 776.31 ± 0.48 kg/m3
viscosity [2, 6]: 0.771 ± 0.013 mPa·s
mass density ([2]; 318.15 K): 767.44 ± 0.49 kg/m3

CCO [ethanol] + CCOC(=O)CC(C)C
viscosity [2, 3]: 1.337 ± 0.014 mPa·s
mass density ([2]; 288.15 K): 793.6 ± 0.45 kg/m3
viscosity [2, 4]: 1.105 ± 0.014 mPa·s
mass density ([2]; 298.15 K): 785 ± 0.46 kg/m3
viscosity [2, 5]: 0.921 ± 0.013 mPa·s
mass density ([2]; 308.15 K): 776.31 ± 0.48 kg/m3
viscosity [2, 6]: 0.771 ± 0.013 mPa·s
mass density ([2]; 318.15 K): 767.44 ± 0.49 kg/m3

CCO [ethanol] + CCOC(=O)c1ccccc1O
mass density ([2]; 288.15 K): 793.6 ± 0.45 kg/m3
viscosity ([2]; 288.15 K): 1.337 ± 0.019 mPa·s
mass density ([2]; 298.15 K): 785 ± 0.46 kg/m3
viscosity ([2]; 298.15 K): 1.105 ± 0.017 mPa·s
mass density ([2]; 308.15 K): 776.31 ± 0.48 kg/m3
viscosity ([2]; 308.15 K): 0.921 ± 0.016 mPa·s
mass density ([2]; 318.15 K): 767.44 ± 0.49 kg/m3
viscosity ([2]; 318.15 K): 0.771 ± 0.015 mPa·s

CCO [ethanol] + COC(=O)c1ccccc1
viscosity [2, 3]: 1.337 ± 0.014 mPa·s
mass density ([2]; 288.15 K): 793.6 ± 0.45 kg/m3
viscosity [2, 4]: 1.105 ± 0.014 mPa·s
mass density ([2]; 298.15 K): 785 ± 0.46 kg/m3
viscosity [2, 5]: 0.921 ± 0.013 mPa·s
mass density ([2]; 308.15 K): 776.31 ± 0.48 kg/m3
viscosity [2, 6]: 0.771 ± 0.013 mPa·s
mass density ([2]; 318.15 K): 767.44 ± 0.49 kg/m3

CCOC(=O)c1ccccc1O [ethyl 2-hydroxybenzoate]
mass density ([1]; 288.15 K): 1134.72 ± 0.41 kg/m3
viscosity ([1]; 288.15 K): 3.694 ± 0.041 mPa·s
mass density ([1]; 298.15 K): 1125 ± 0.39 kg/m3
viscosity ([1]; 298.15 K): 2.831 ± 0.032 mPa·s
mass density ([1]; 308.15 K): 1115.29 ± 0.38 kg/m3
viscosity ([1]; 308.15 K): 2.253 ± 0.027 mPa·s
mass density ([1]; 318.15 K): 1105.6 ± 0.37 kg/m3
viscosity ([1]; 318.15 K): 1.842 ± 0.023 mPa·s

CCOC(=O)CC(C)C [ethyl 3-methylbutanoate]
mass density ([1]; 288.15 K): 869.66 ± 0.55 kg/m3
viscosity [1, 3]: 0.853 ± 0.014 mPa·s
mass density ([1]; 298.15 K): 859.78 ± 0.55 kg/m3
viscosity [1, 4]: 0.739 ± 0.013 mPa·s
mass density ([1]; 308.15 K): 849.83 ± 0.56 kg/m3
viscosity [1, 5]: 0.642 ± 0.013 mPa·s
mass density ([1]; 318.15 K): 839.81 ± 0.57 kg/m3
viscosity [1, 6]: 0.566 ± 0.013 mPa·s

CCOC(=O)CC(C)=O [ethyl 3-oxobutanoate]
mass density ([1]; 288.15 K): 1033.92 ± 0.45 kg/m3
viscosity [1, 3]: 1.902 ± 0.017 mPa·s
mass density ([1]; 298.15 K): 1023.45 ± 0.44 kg/m3
viscosity [1, 4]: 1.581 ± 0.016 mPa·s
mass density ([1]; 308.15 K): 1013 ± 0.43 kg/m3
viscosity [1, 5]: 1.344 ± 0.015 mPa·s
mass density ([1]; 318.15 K): 1002.54 ± 0.43 kg/m3
viscosity [1, 6]: 1.144 ± 0.014 mPa·s

COC(=O)c1ccccc1 [methyl benzoate]
mass density ([1]; 288.15 K): 1093.23 ± 0.52 kg/m3
viscosity [1, 3]: 2.297 ± 0.019 mPa·s
mass density ([1]; 298.15 K): 1083.92 ± 0.51 kg/m3
viscosity [1, 4]: 1.851 ± 0.017 mPa·s
mass density ([1]; 308.15 K): 1074.34 ± 0.5 kg/m3
viscosity [1, 5]: 1.531 ± 0.016 mPa·s
mass density ([1]; 318.15 K): 1064.62 ± 0.49 kg/m3
viscosity [1, 6]: 1.297 ± 0.015 mPa·s
